Values quoted from earlier work in patent US5585244A, “Detection of retinoid X receptor subtype γ proteins” (Ligand Pharmaceuticals Incorporated, priority 1994, dated 1996).

Experiments:
[1] = molecular target: retinoic acid receptors (RARs); settings: 9cRA and tRA bind with equally high affinity
[2] = molecular target: retinoid X receptors (RXRs)
[3] = molecular target: retinoid X receptors (RXRs); settings: versus tritiated 9cRA

For CC1=C(/C=C/C(C)=C\C=C\C(C)=C\C(=O)O)C(C)(C)CCC1 [9cRA, 9-cis retinoic acid], the Kd [1] is given as 0.2 to 0.8 nM and the Kd [2] is given as 1 to 2 nM.
For CC1=C(/C=C/C(C)=C/C=C/C(C)=C/C(=O)O)C(C)(C)CCC1 [tRA, all-trans retinoic acid], the Kd [1] is given as 0.2 to 0.8 nM and the IC50 [3] is given as greater than 50000 nM.
